Test results reported in patent publication US9511074B2, “Methods of treating disorders associated with protein polymerization” (UNIVERSITY OF PITTSBURGH—OF THE COMMONWEALTH SYSTEM OF …, priority 2009, dated 2016).
Residues, ends and D or L forms follow the SMILES beside them. *: point of attachment. Cbz = O=C(OCc1ccccc1)*

How the values were obtained:
[1] = system: ATZ in the HTO/Z cell line; assay: ATZ levels in HTO/Z cells in the presence of proteasomal inhibitors with or without CBZ; type: cell-based, human; settings: for levels of ATZ with proteasomal inhibitor alone: no CBZ; for levels of insoluble ATZ in the presence of CBZ: proteasomal inhibitor added for last 6 hours
Experimental: For experiments in which proteasomal inhibitors were used, MG132 was used at 30 μM and lactacystin at 10 μM for the last 6 hours of the incubation with CBZ or control. Cells that were incubated with MG132 or lactacystin alone served as control to validate that the proteasome was inhibited. For investigation of LC3 conversion, lysosomal inhibitors (E64D and pepstatin A at 20 μg/ml) were added to the medium for the last 4 hours of the incubation with CBZ or control. […] If the number of separate experiments done in the cell line models is not specifically indicated in the text or figure legend, at least 3 separate experiments were done in each case.
(§1) For immunoblot analysis to detect AT, GAPDH or LC3, cells were lysed in 50 mM Tris-HCl, 150 mM NaCl, 1% NP-40, pH 8.0. Protein levels were quantified using the BCA protein assay (Pierce Biotechnology, Rockford, Ill.). 10-50 μg samples were loaded onto 7.5% precast gels. PVDF membranes were blocked in TBS, 0.5% Tween 20 (TBST), 5% milk and then incubated with primary antibody in 5% milk TBST solution. Horseradish peroxidase anti-goat Ig or anti-mouse Ig (Jackson Labs, Bar Harbor, Me.) were used as secondary antibodies in TBST. Blots were visualized with Super Signal West Dura or West Femto from Pierce.

[2] = system: ATZ in the HTO/Z cell line; assay: Steady state levels of ATZ in the HTO/Z cell line (immunoblot of insoluble and soluble fractions); type: cell-based, human; settings: HTO/Z cells
Text: Cell Lines The human epidermal HeLa cell line with doxycycline-regulated expression of ATZ (HTO/Z) has been described previously (1). HTO/M and HTO/Saar are HeLa cell lines with doxycycline-regulated expression of wild type AT and the AT Saar variant, respectively (1). A murine embryonic fibroblast cell line (MEF) with targeted disruption of Atg5 (2) was engineered for stable expression of ATZ using the previously described pRc/RSV-ATZ expression plasmid (3). A wild type MEF cell line was also engineered for stable expression of ATZ in the same way to serve as control. For experiments with CBZ, the inducible cell lines were cultured in the absence of doxycycline for at least 4 weeks for maximal expression of AT. The cells were then subcultured into separate monolayers in fresh complete growth medium and incubated for 48 hours in the absence or presence of CBZ or rapamycin (RAP). CBZ or RAP were added to the growth medium. The duration of incubation with CBZ was determined to be optimal at 48 hours based on experiments in which the duration was varied from 12 to 72 hours. Doses of CBZ were based on previous studies of its effects in cell lines (5,6). Doses of RAP were based on previous positive effects on autophagic disposal of polyglutamine-repeat proteins (7). After the incubation cells were homogenized and cell homogenates separated into insoluble and soluble fractions according to our previously established technique (8). Samples of 20 μgs each were subjected to immunoblot analysis for AT, BiP and GAPDH.
as §1

ATZ in the liver = assay: Hepatic load of ATZ in vivo in PiZ×GFP-LC3 mice (immunoblot, globule histology); design: species or system mouse; settings: PiZ mice, 2 mg/kg/day intraperitoneal for 2 weeks, FIG. 5C
Text: Transgenic Mice PiZ mice that have been bred into the C57/BL6 background have been described previously (1). For the second and third series of experiments with CBZ we used PiZ mice that were re-derived onto the FVB/N background for a move into a new animal facility. The transgene that was used to generate the PiZ mouse is a genomic fragment of DNA that contains the coding regions of the ATZ gene together with introns and ˜2 kilobases of upstream and downstream flanking regions (10). […] In this perspective it is not an exact phenocopy of the classical form of AT deficiency. In particular it cannot be a model for the loss-of-function mechanisms associated with the classical form of AT deficiency. It is known to have abundant expression of ATZ in hepatocytes and other cell types that express ATZ in humans (11). In the liver there are abundant ATZ-containing intrahepatocytic globules and inflammation that is characteristic of what is seen in the human liver (11,12). […] Taken together, these observations indicate that the PiZ mouse is an appropriate model for the gain-of-toxic function mechanism that is responsible for liver damage in the classical form of AT deficiency. Indeed, the fact that these mice are endowed with endogenous AT function and therein normal levels of AT in the serum and body fluids make them an even more ‘pure’ model for liver damage by gain-of-toxic function. PiZ×GFP-LC3 mice, which generated green fluorescent autophagosomes, have been described previously (2). PiZ×IKKβ.hep were generated by mating of PiZ to IKKβ.hep, which has conditional hepatocyte-specific disruption of NF.B activation (M. Karin, 17). There is increased injury in the liver of these mice as evidenced by the hepatic hydroxyproline content, 153.3% of that in the PiZ mouse (FIG. 7).
Histology Sections of liver tissue were stained with hematoxylin and eosin, PAS, PAS after diastase treatment, TUNEL, PCNA, Ki67 and Sirius Red using standard techniques (18). Previous methods for staining with antibody to smooth muscle actin were used (19). Each was examined by the pathologist (GM) who was completely blinded to the experimental protocol. […] The number of inflammatory nodules, AT-containing globules and autophagosomes were each quantified blindly by counting cells in 6 microscopic fields of 10 different sections for each liver. The number of nuclei, as determined by Hoechst staining, was used to exclude the possibility that different numbers of cells were counted in liver sections from mice treated with CBZ as compared to controls. Hepatic hydroxyproline concentration was determined by a well-established protocol (20,21). […]
For immunoblot on liver, the liver was snap frozen in liquid nitrogen and stored at −80° C. […] Total protein concentration was measured by BCA assay (Pierce). […]

[3] = 48 hours incubation, immunoblot

Question: With CC(C)C[C@@H](C=O)NC(=O)[C@H](CC(C)C)NC(=O)[C@H](CC(C)C)NC(=O)OCc1ccccc1 [MG132] (Cbz-Leu-Leu-Leu-aldehyde) as the molecule, how does the “levels of ATZ with proteasomal inhibitor alone” value [1] read?
Answer: Increased levels

Question: What about the “levels of insoluble ATZ in the presence of CBZ” value [1] of the same molecule?
Answer: no effect

Question: NC(=O)N1c2ccccc2CC(=O)c2ccccc21 [OBZ, 10,11-dihydro-10-oxo-5H-dibenz[b,f]azepine-5-carboxamide] was tested. Which “steady-state levels of ATZ, insoluble fraction” value [2, 3] did it give?
Answer: marked decrease

Question: And the “steady-state levels of ATZ, soluble fraction” value [2, 3]?
Answer: minimal effect

Question: What about the “lowest dose with evident effect on insoluble ATZ” value ([2]; 48 hrs, FIG. 9) of the same molecule?
Answer: 0.1 µM

Question: Which results are given for CC(=O)N[C@@H](CSC(=O)[C@]1([C@@H](O)C(C)C)NC(=O)[C@H](C)[C@@H]1O)C(=O)O [lactacystin]?
Answer: levels of ATZ with proteasomal inhibitor alone [1]: Increased levels; reversal of the effect of CBZ on levels of soluble ATZ ([1]; lactacystin 10 μM for last 6 hours of CBZ incubation, mean SD, n=3): 23.1±14.0%; levels of insoluble ATZ in the presence of CBZ [1]: no effect

Question: For CO[C@H]1C[C@@H]2CC[C@@H](C)[C@@](O)(O2)C(=O)C(=O)N2CCCC[C@H]2C(=O)O[C@H]([C@H](C)C[C@@H]2CC[C@@H](O)[C@H](OC)C2)CC(=O)[C@H](C)/C=C(\C)[C@@H](O)[C@@H](OC)C(=O)[C@H](C)C[C@H](C)/C=C/C=C/C=C/1C [rapamycin], which “hepatic ATZ levels” value (ATZ in the liver) is on record?
Answer: no effect

Question: And the “ATZ levels (insoluble and soluble fractions)” value ([2]; 48-hour incubation, FIG. 1B)?
Answer: no effect
